Experimental data: patent US20220054465A1, “(PYRIDIN-2-YL)AMINE DERIVATIVES AS TGF-BETA R1 (ALK5) INHIBITORS FOR THE TREATMENT OF CANCER” (Nexys Therapeutics, Inc., priority 2018, published 2022)

What was measured:
[1] = test system: HEK-Blue TGFβ cell; test: HEK-Blue TGFβ cellular reporter gene assay (SEAP readout); type: cell-based; conditions: HEK-Blue TGFβ cells stimulated with TGF-β, 22-23 h incubation, SEAP read at 630 nm
Summary of the method: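 Cells (2.5×10^5 cells/ml suspension) in DMEM with 0.5% heat-inactivated FBS stimulated with TGF-β (6 ng/ml working solution) plus compound at eight 3-fold dilutions for 22-23 h at 37° C. Supernatant SEAP measured with QUANTI-Blue after 30-40 min, absorbance 630 nm; percent inhibition calculated.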

[2] = Tissue exposure (liver and heart) in Balb/c mouse after PO dosing, general PK protocol; type: in vivo; conditions: PO (intragastric) 10 mg/Kg, liver and heart tissue 0.5-24 h, LC-MS/MS
Procedure: Comparing AUCliver/AUCheart ratio of selected Examples with clinic compounds Galunisertib and LY3200882. Tissue exposure was measured in Balb/c mouse with PO dosing at 10 mpk. […] See Stauber, et al., J. Clin. Pract., 2014, 4(3), 196.
The Balb/c mice were fasted overnight with free access to drinking water prior to treatment. Compounds were formulated in 0.5% CMC/0.5% Tween 80 with or without 1 eq. of NaOH, and administrated intragastrically at 10 mg/Kg. The liver and heart tissues of mice were collected at time points 0.5, 1, 3, 5, 7, 24 h (2 mice per time point) post dose by first sacrificing the animal by C02 inhalation. After flushing with ice saline and removal of excess water on its surface, the liver and heart tissues were weighed and homogenized in 1:5 volumes (w/v) of water with 20% methanol. Tissue samples were kept at −40˜−20° C. prior to analysis. Concentrations of compounds in the liver and hearts were determined using an established liquid chromatography-tandem mass spectrometry (LC-MS/MS) method. Tissue concentration-time data were processed by linear regression analysis. All pharmacokinetic parameters were calculated using non-compartment model of Pharsight Phoenix 8.0.

[3] = Stauber, et al., J. Clin. Pract., 2014, 4(3), 196; cited from earlier work

AUCliver/AUCheart [2]	Compound	IC50 [1]	Cardiac toxicity [3]
13.2	Cc1cc(Oc2ccnc(Nc3cccc(CCC(=O)O)c3)c2)c(-c2ccccn2)nc1C [Example 1, 3-(3-((4-((5,6-dimethyl-[2,2′-bipyridin]-3-yl)oxy)pyridin-2-yl)amino)phenyl)propanoic acid]	0.18 µM	–
60.9	Cc1cc(Oc2ccnc(Nc3cccc(CCc4nn[nH]n4)c3)c2)c(-c2ccccn2)nc1C [Example 12, N-(3-(2-(2H-tetrazol-5-yl)ethyl)phenyl)-4-((5,6-dimethyl-[2,2′-bipyridin]-3-yl)oxy)pyridin-2-amine]	0.13 µM	–
142	Cc1cc(Oc2ccnc(Nc3cccc(Cc4nnn[nH]4)c3)c2)c(-c2ccccn2)nc1C [Example 16, N-(3-((1H-tetrazol-5-yl)methyl)phenyl)-4-((5,6-dimethyl-[2,2′-bipyridin]-3-yl)oxy)pyridin-2-amine]	0.39 µM	–
29.9	Cc1ccc(Oc2ccnc(Nc3cccc(CCc4nn[nH]n4)c3)c2)c(C)n1 [Example 44, N-(3-(2-(2H-tetrazol-5-yl)ethyl)phenyl)-4-((2,6-dimethylpyridin-3-yl)oxy)pyridin-2-amine]	0.12 µM	–
70.6	Cc1ccc(Oc2ccnc(Nc3cccc(CCc4nn[nH]n4)c3)c2)c(-c2ccccc2)n1 [Example 52, N-(3-(2-(2H-tetrazol-5-yl)ethyl)phenyl)-4-((6-methyl-2-phenylpyridin-3-yl)oxy)pyridin-2-amine]	0.037 µM	–
67.7	Cc1ccc(Oc2ccnc(Nc3cccc(C(C)(C)C(=O)O)c3)c2)c(-c2ccccc2)n1 [Example 70, 2-methyl-2-(3-((4-((6-methyl-2-phenylpyridin-3-yl)oxy)pyridin-2-yl)amino)phenyl)propanoic acid]	0.007 µM	–
266	CC(C)(C(=O)O)c1cccc(Nc2cc(Oc3cn(C4CC4)nc3C3CCOCC3)ccn2)c1 [Example 74]	0.23 µM	–
124	CCc1ccc(Oc2ccnc(Nc3cccc(C(C)(C)C(=O)O)c3)c2)c(C)n1 [Example 81, 2-(3-((4-((6-ethyl-2-methylpyridin-3-yl)oxy)pyridin-2-yl)amino)phenyl)-2-methylpropanoic acid]	0.031 µM	–
27.8	CCc1ccc(Oc2ccnc(Nc3cccc(C(C)(C)C(=O)O)c3)c2)c(-c2ccccc2)n1 [Example 104]	0.022 µM	–
183	CCc1ccc(Oc2ccnc(Nc3cccc(CCc4nn[nH]n4)c3)c2)c(-c2ccccn2)n1 [Example 175, N-(3-(2-(2H-tetrazol-5-yl)ethyl)phenyl)-4-((6-ethyl-[2,2′-bipyridin]-3-yl)oxy)pyridin-2-amine]	0.044 µM	–
–	Cc1cc(Cc2nn[nH]n2)cc(Nc2cc(Oc3cn(C4CCC4)nc3-c3ccccc3)ccn2)c1 [Example 202]	0.12 µM	–
2.9	Cc1cccc(-c2nn3c(c2-c2ccnc4ccc(C(N)=O)cc24)CCC3)n1 [Galunisertib, galunisertib, reference compound]	–	limiting factor
1.3	CC(C)(O)c1cc(Nc2cc(Oc3cn(C4CC4)nc3C3CCOCC3)ccn2)ccn1 [LY3200882, reference compound]	–	cardiac toxicity was identified as the most relevant
